Measured values reported in US20080139664A1, “ANTI-GLYCATION AGENTS FOR PREVENTING AGE-, DIABETES-, AND SMOKING-RELATED COMPLICATIONS” (NATIONAL RESEARCH COUNCIL OF CANADA, priority 2001, published 2008).

Key:
[1] = system: bovine serum albumin (BSA)
Description: During the glycation reaction between proteins and reducing sugars, a specific fluorescence with excitation and emission wavelength of 370 nm and 440 nm, respectively, is observed. […] The assay was based on the progressive development of the characteristic Maillard fluorescence (370 nm Ex and 440 nm Em) during the progress of the glycation reaction.
The final assay volume was 200 μl and each assay well contained 0.075 mM BSA, and 50 mM D-ribose. Compounds were assayed at 3 different concentration levels (0.003, 0.03, and 0.3 mg/mL) to determine the effect of concentration on inhibition. Samples were incubated for 5 days.
The Maillard fluorescence was directly measured from the reaction solution, except for the anti-glycants that quenched the Maillard fluorescence, which were analyzed by the earlier-described HPLC method.
Solutions were incubated in microtitre plates (96 wells) at 37° C. for 5 days in a closed system.
After one hour incubation at 37° C., fluorescence readings were taken.
The IC50 values of the compounds that quenched the fluorescence of the glycated BSA were analyzed by on-line monitoring of the fluorescence of the glycated BSA separated from the fluorescence quenching assay compound by RP-HPLC. The elution profile was monitored by UV-diode array and by fluorescence (λex=370 nm, λem=440 nm). […] The incubation conditions were the same as above.

[2] = system: bovine serum albumin (BSA); assay: Fluorescamine assay of free primary amino groups of BSA incubated with D-ribose; assay type: biochemical; settings: for Unreacted amino group: free primary amino group on BSA after 5 days at 37° C., agent at 16.8 times IC50, 64% without agent
Description: Fluorescamine assay (Yeboah F. et al., J. Agric. Food Chem. 48, 2766-2774 (2000)) was performed on incubated mixtures of BSA and D-ribose, with or without the identified anti-glycation agents. The mixtures contained BSA (0.075 mM protein concentration or 4.53 mM of Lys residue concentration) and D-ribose (50 mM). […] The fluorescamine assay determines the number of free lysine residues of BSA. In this experiment, the final volume of the incubation mixtures was 10 mL and the incubation time was 5 days at 37° C. Prior to the fluorescamine assay, the proteins were isolated by reverse phase HPLC. The protein content was determined using the Bio-Rad protein determination reagent (Bradford method). The fluorescamine assay was done in triplicate.

[3] = system: lysozyme; assay: ESI-MS of lysozyme glycoforms after incubation with D-ribose; settings: 37° C., 5 days; for Peak area as % of total area of all glycoforms, 14,569: lysozyme + 2D-ribose − 2H2O (14,569 Da); for Peak area as % of total area of all glycoforms, 14,551: lysozyme + 2D-ribose − 3H2O (14,551 Da); for Peak area as % of total area of all glycoforms, 14,533: lysozyme + 2D-ribose − 5H2O (14,533 Da); for Peak area as % of total area of all glycoforms, 14,515: lysozyme + 2D-ribose − 6H2O (14,515 Da); for Peak area as % of total area of all glycoforms, 14,419: lysozyme + D-ribose − 2H2O (14,419 Da); for Peak area as % of total area of all glycoforms, 14,401: lysozyme + D-ribose − 3H2O (14,401 Da); for Peak area as % of total area of all glycoforms, 14,437: lysozyme + D-ribose − H2O (14,437 Da); for Peak area as % of total area of all glycoforms, 14,496: lysozyme + D-ribose − H2O with one carboxymethylated Lys residue (14,496 Da); for Peak area as % of total area of all glycoforms, 14,364: lysozyme with one carboxymethylated Lys residue (14,364 Da); for Peak area as % of total area of all glycoforms, 14,305: unmodified lysozyme (14,305 Da);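 on all read-outs here: lysozyme incubated with D-ribose, with or without anti-glycation agents, then separated by reversed-phase HPLC and analysed by electrospray mass spectrometry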

| Compound | IC50 [1] [µM] | Unreacted amino group [2] [%] | Peak area as % of total area of all glycoforms, 14,569 [3] [%] | Peak area as % of total area of all glycoforms, 14,551 [3] [%] | Peak area as % of total area of all glycoforms, 14,533 [3] [%] | Peak area as % of total area of all glycoforms, 14,515 [3] [%] | Peak area as % of total area of all glycoforms, 14,419 [3] [%] | Peak area as % of total area of all glycoforms, 14,401 [3] [%] | Peak area as % of total area of all glycoforms, 14,437 [3] [%] | Peak area as % of total area of all glycoforms, 14,496 [3] [%] | Peak area as % of total area of all glycoforms, 14,364 [3] [%] | Peak area as % of total area of all glycoforms, 14,305 [3] [%] | effect on protection of amino groups of BSA ([2]; in words) |
| --- | --- | --- | --- | --- | --- | --- | --- | --- | --- | --- | --- | --- | --- |
| C[C@](N)(Cc1ccc(O)c(O)c1)C(=O)O [L-α-Methyl-DOPA] | 73 | 47 | 2.7 | 0.5 | 0.1 | 0.5 | 1.5 | 2.1 | 18.3 | 1.0 | 3.5 | 69.4 | – |
| CCCOC(=O)c1cc(O)c(O)c(O)c1 [Propyl gallate] | 330 | 28 | 0.0 | 0.0 | 0.0 | 0.0 | 1.3 | 0.0 | 7.7 | 0.0 | 4.4 | 86.6 | – |
| Cc1ncc([N+](=O)[O-])n1CC(O)CCl (stereo not shown) [Ornidazole] | 570 | 60 | 4.8 | 3.4 | 2.0 | 0.9 | 6.7 | 0.0 | 23.4 | 0.0 | 3.2 | 54.2 | – |
| O=C1C=C(O)C(=O)c2ccccc21 [Lawsone] | 190 | 44 | 0.0 | 0.0 | 0.9 | 0.8 | 4.9 | 0.0 | 9.5 | 0.0 | 7.5 | 74.3 | – |
| CS(=O)(=O)Nc1ccc([N+](=O)[O-])cc1Oc1ccccc1 [Nimesulide] | 350 | 69 | 5.2 | 3.8 | 2.3 | 1.3 | 7.6 | 0.0 | 22.6 | 0.0 | 3.4 | 49.8 | – |
| C[C@@](Cc1ccc(O)c(O)c1)(NN)C(=O)O [S(−)-Carbidopa] | 140 | 89 | 0.0 | 2.4 | 0.8 | 0.6 | 3.2 | 2.0 | 18.4 | 0.9 | 3.7 | 67.9 | – |
| Oc1ccc(CC2NCCc3cc(O)c(O)cc32)cc1O (racemic) [(±)-Tetrahydropapaveroline] | 90 | 51 | 2.3 | 0.7 | 0.8 | 0.0 | 2.8 | 2.1 | 17.6 | 0.9 | 3.9 | 68.9 | – |

The next lines start with results.

| IC50 [1] [µM] | Compound | Unreacted amino group [2] [%] | Peak area as % of total area of all glycoforms, 14,569 [3] [%] | Peak area as % of total area of all glycoforms, 14,551 [3] [%] | Peak area as % of total area of all glycoforms, 14,533 [3] [%] | Peak area as % of total area of all glycoforms, 14,515 [3] [%] | Peak area as % of total area of all glycoforms, 14,419 [3] [%] | Peak area as % of total area of all glycoforms, 14,401 [3] [%] | Peak area as % of total area of all glycoforms, 14,437 [3] [%] | Peak area as % of total area of all glycoforms, 14,496 [3] [%] | Peak area as % of total area of all glycoforms, 14,364 [3] [%] | Peak area as % of total area of all glycoforms, 14,305 [3] [%] | effect on protection of amino groups of BSA ([2]; in words) |
| --- | --- | --- | --- | --- | --- | --- | --- | --- | --- | --- | --- | --- | --- |
| 110 | O=c1c(O)c(-c2ccccc2)oc2cc(O)cc(O)c12 [Galangin] | 64 | 4.3 | 5.2 | 2.2 | 1.0 | 10.2 | 0.8 | 20.2 | 0.0 | 4.1 | 48.0 | – |
| 40 | O=c1oc2c(O)c(O)cc3c(=O)oc4c(O)c(O)cc1c4c23 [Ellagic acid] | 52 | 0.0 | 0.0 | 0.0 | 0.0 | 1.2 | 0.0 | 14.6 | 0.0 | 1.1 | 83.1 | – |
| 120 | O=Cc1ccc(O)c(O)c1 [3,4-Dihydroxybenzaldehyde] | 32 | 1.8 | 3.0 | 0.0 | 1.2 | 3.1 | 0.0 | 10.9 | 1.5 | 0.0 | 78.6 | seem to accelerate the modification of the amino groups |
| 75 | N[C@@H](Cc1ccc(O)c(O)c1)C(=O)O [L-DOPA] | 60 | 3.0 | 0.7 | 0.8 | 0.7 | 2.1 | 1.8 | 21.1 | 1.2 | 3.9 | 64.7 | – |
| 60 | O=c1cc(-c2ccc(O)c(O)c2)oc2cc(O)cc(O)c12 [Luteolin] | 60 | 5.2 | 3.0 | 3.9 | 1.4 | 6.3 | 2.1 | 21.2 | 0.8 | 1.1 | 51.4 | – |
| 62 | NCCc1ccc(O)c(O)c1 [Dopamine] | 60 | 1.2 | 0.0 | 0.0 | 0.0 | 1.6 | 1.3 | 13.4 | 0.0 | 3.3 | 79.2 | – |
| 49 | O=c1cc(-c2ccccc2)oc2cc(O)c(O)c(O)c12 [Baicalein] | 48 | 0.0 | 0.0 | 0.0 | 0.0 | 0.0 | 0.0 | 5.9 | 0.0 | 0.0 | 94.1 | – |
